Several values for one entry are separate records, joined by “and”; a condition that tells them apart may be missing. Equal entries are not always repeated. Inconclusive results and toxic doses are left out.
Tested on: BDF1 mice, P388 leukemia ip, median survival T/C
Test: NCI In Vivo Anticancer Drug Screen. Data for tumor model P388 Leukemia (intraperitoneal) in B6D2F1 (BDF1) mice
Settings: endpoint: median survival time, higher = longer survival
Outline: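 In tumour-bearing mice, survival after compound treatment is set against the vehicle group and given as a quotient.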

[1] = dose: 50.0 mg/kg/injection, schedule: Q01DX009 (ip), vehicle: Klucel (hydroxypropylcellulose) (HPC)
[2] = dose: 50.0 mg/kg/injection, schedule: Q04DX003 (ip), vehicle: Klucel (hydroxypropylcellulose) (HPC)
[3] = dose: 100.0 mg/kg/injection, schedule: Q01DX009 (ip), vehicle: Klucel (hydroxypropylcellulose) (HPC)
[4] = dose: 100.0 mg/kg/injection, schedule: Q04DX003 (ip), vehicle: Klucel (hydroxypropylcellulose) (HPC)
[5] = dose: 200.0 mg/kg/injection, schedule: Q01DX009 (ip), vehicle: Klucel (hydroxypropylcellulose) (HPC)
[6] = dose: 200.0 mg/kg/injection, schedule: Q04DX003 (ip), vehicle: Klucel (hydroxypropylcellulose) (HPC)
[7] = dose: 25.0 mg/kg/injection, schedule: Q04DX003 (ip), vehicle: saline with Tween-80
[8] = dose: 50.0 mg/kg/injection, schedule: Q04DX003 (ip), vehicle: saline with Tween-80
[9] = dose: 100.0 mg/kg/injection, schedule: Q04DX003 (ip), vehicle: saline with Tween-80

Cc1ccc(N(N)c2ccc(C)cc2)cc1
T/C [1]: 100 % of control
T/C [2]: 107 % of control
T/C [3]: 118 % of control
T/C [4]: 107 % of control
T/C [5]: 113 % of control
T/C [6]: 100 % of control

COC(=O)C1C2CCC3C2C(C)(C)CCCC31C (centres undefined)
T/C [7]: 100 % of control
T/C [8]: 95 % of control
T/C [9]: 104 % of control
T/C (dose: 200.0 mg/kg/injection, schedule: Q04DX003 (ip), vehicle: saline with Tween-80): 118 % of control

CCN(CC)CCOC(=O)c1ccc([N+](=O)[O-])c2ccccc12
T/C (dose: 50.0 mg/kg/injection, schedule: Q01DX005 (ip), vehicle: saline with Tween-80): 98 % of control
T/C (dose: 100.0 mg/kg/injection, schedule: Q01DX005 (ip), vehicle: saline with Tween-80): 88 % of control
T/C (dose: 200.0 mg/kg/injection, schedule: Q01DX005 (ip), vehicle: saline with Tween-80): 88 % of control

CCCCCCCCCCCC#N
T/C (dose: 100.0 mg/kg/injection, schedule: Q01DX009 (ip), vehicle: saline): 95 % of control
T/C (dose: 200.0 mg/kg/injection, schedule: Q01DX009 (ip), vehicle: saline): 95 % of control
T/C (dose: 400.0 mg/kg/injection, schedule: Q01DX009 (ip), vehicle: saline): 100 % of control

Cc1n[nH]c(=S)[nH]c1=S
T/C [7]: 109 % of control
T/C [8]: 100 % of control
T/C [9]: 104 % of control

Cc1cccc(-c2nc3cc(Cl)ccc3c(=O)o2)c1
T/C [1]: 104 % of control
T/C [2]: 95 % of control
T/C [3]: 109 % of control
T/C [4]: 100 % of control
T/C [6]: 95 % of control

C=C(C)COP(=O)(OCC(=C)C)OCC(=C)C
T/C [1]: 104 % of control
T/C [3]: 100 % of control
T/C [4]: 104 % of control
T/C [5]: 109 % of control
T/C [6]: 95 % of control
T/C (dose: 400.0 mg/kg/injection, schedule: Q04DX003 (ip), vehicle: Klucel (hydroxypropylcellulose) (HPC)): 95 % of control

COc1ccc(C(O)CNC(=O)c2ccccc2)cc1 (centres undefined)
T/C (dose: 66.0 mg/kg/injection, schedule: Q04DX003 (ip), vehicle: Klucel (hydroxypropylcellulose) (HPC)): 109 % of control and 110 % of control
T/C [4]: 255 % of control and 104 % of control and 115 % of control
T/C (dose: 150.0 mg/kg/injection, schedule: Q04DX003 (ip), vehicle: Klucel (hydroxypropylcellulose) (HPC)): 109 % of control and 115 % of control

O=C(CN1C(=O)c2ccccc2C1=O)c1ccc(C(F)(F)F)cc1
T/C (dose: 50.0 mg/kg/injection, schedule: Q01DX001 (ip), vehicle: Klucel (hydroxypropylcellulose) (HPC)): 96 % of control
T/C (dose: 100.0 mg/kg/injection, schedule: Q01DX001 (ip), vehicle: Klucel (hydroxypropylcellulose) (HPC)): 105 % of control
T/C (dose: 200.0 mg/kg/injection, schedule: Q01DX001 (ip), vehicle: Klucel (hydroxypropylcellulose) (HPC)): 88 % of control

C1CC[N-]CC1.C1CC[N-]CC1.O=C(CC(=O)C(F)(F)F)C(F)(F)F.O=C(CC(=O)C(F)(F)F)C(F)(F)F.[Ni+2]
T/C (dose: 25.0 mg/kg/injection, schedule: Q04DX003 (ip), vehicle: saline): 104 % of control
T/C (dose: 50.0 mg/kg/injection, schedule: Q04DX003 (ip), vehicle: saline): 108 % of control
T/C (dose: 100.0 mg/kg/injection, schedule: Q04DX003 (ip), vehicle: saline): 104 % of control

From PubChem BioAssay AID328 (DTP/NCI, 2004)
